“Also recorded” adds a separate entry of the source.
Key:
[1] = tested on: hSC-CMs (Cor.4U Cardiomyocytes); assay: CardioExcyte 96 impedance and EFP recording (beating rate, base impedance); assay type: cell-based, human; details: for activity at 0.3 µM / activity at 3 µM / activity at 30 µM / activity at 300 µM: Homo sapiens, Cardiomyocyte; for activity at 0.3 µM / activity at 3 µM / activity at 30 µM / activity at 300 µM / BR / Base Imp: vs baseline before drug (taken as 100%); for Effect on base impedance, in words: hSC-CMs, 2 and 24 h
Procedure: Cor.4U® Cardiomyocytes (Ncardia, Netherlands) were cultured in 96-well plates at density of 25,000 – 30,000 cells per well. Cells were maintained at 5% CO2 and 37 °C for 4 days prior to experiments.
Functional monitoring of cardiomyocytes was done using CardioExcyte® 96 (Nanion technologies GmbH, Germany). Extracellular field potential (EFP) and impedance signals were recorded from hSC-CMs that formed monolayers in the wells of the NSP-96 plate. Beating Rate (BR, per minute) was calculated as the reciprocal of the inter-spike interval (ISI) in EFP signal. Impedance signals from spontaneously beating hSC-CMs were recorded with a sampling rate of 1 ms (1 kHz), and EFP data were collected at 0.1ms (10 kHz). Data acquisition was controlled by CardioExcyte® 96 Control software as previously described ([22]). The functional parameters recorded in each concentration of test items were compared to the base line values before drug addition (taken as 100%) to define fractional change.

[2] = tested on: hSC-CMs (Cor.4U Cardiomyocytes); assay: Apoptosis assay (CellEvent Caspase-3/7 Green, IncuCyte ZOOM kinetics over 24 h); assay type: cell-based, human; set-up: key to Caspase / Caspase MEAN: % of time-matched vehicle control (green object area)
Procedure: Cor.4U® Cardiomyocytes ([…], Netherlands) were cultured in 96-well plates at density of 25,000 - 30,000 cells per well. Cells were maintained at 5% CO2 and 37 °C for 4 days prior to experiments. […] The plates were incubated 2 h before compound treatment in the IncuCyte ZOOM (ESSEN BioScience, Ann Arbor, Michigan) to set a baseline before the 24 h compound treatment. […] Imaging was done using 10x microscope objective of the IncuCyteZOOM with four images per well-taken every 2 h in both phase-contrast and green fluorescence. The fluorescent nuclear signal of the apoptotic cells was separated from background with the integrated object counting algorithm, adjusted to cardiomyocytes, and the calculated total green object area per well (μm^2/well) plotted against time. Data were normalized to those of the time-matched vehicle control. Data were representative of at least three replicates per concentration.

[3] = tested on: hSC-CMs (Cor.4U Cardiomyocytes); assay: ATP assay (CellTiter-Glo Luminescent Cell Viability Assay); assay type: cell-based, human; details: for viability at 0.3 µM / viability at 3 µM / viability at 30 µM / viability at 300 µM: Homo sapiens, Cardiomyocyte; for viability at 0.3 µM / viability at 3 µM / viability at 30 µM / viability at 300 µM / ATP: normalized to time-matched DMSO control
Procedure: Cor.4U® Cardiomyocytes (Ncardia, Netherlands) were cultured in 96-well plates at density of 25,000 – 30,000 cells per well. Cells were maintained at 5% CO2 and 37 °C for 4 days prior to experiments. The cell culture medium (Cor4U® Complete Culture Medium, cat# Ax-M-HC250E, Axiogenesis AG, Cologne, Germany) was changed every 24 h and was replaced by serum-free BMCC medium (cat# Ax-M-BMCC259, Axiogenesis AG, Cologne, Germany) 12 h prior to drug addition.
The CellTiter-Glo Luminescent Cell Viability Assay (cat# G7572, Promega, USA) was performed for quantification of the cellular ATP concentration according to manufacturer's instructions. Plates were shaken for 2 min in the dark, incubated at ambient temperature for 10 min before measuring luminescence (Integration time 0.1 seconds per well) with Luminescence Counter (Synergy H1, BioTek Instruments, Inc., Winooski, Vermont). The measured ATP concentration values were normalized to the time-matched DMSO controls. Data are representative of at least three replicates per concentration.

ROCK1 = details: ref [36] (RKI-1447), [37], [38] (Fasudil), [39]–[43] (Y-27632), [44], [45] (GSK-429286); read-out: Target IC50 ROCK1; cited from earlier work
[4] = Homo sapiens, Cardiomyocyte, 2h, normalized to time-matched vehicle control
[5] = Homo sapiens, Cardiomyocyte, 24h, normalized to time-matched vehicle control

## O=S(=O)(c1cccc2cnccc12)N1CCCNCC1 [Fasudil]
[1]; 2h, read-out: BR
  activity at 0.3 µM: 100%
  activity at 3 µM: 97%
  activity at 30 µM: 96%
[1]; 2h, read-out: Base Imp
  activity at 0.3 µM: 87%
  activity at 3 µM: 86%
  activity at 30 µM: 82%
[1]; 24h, read-out: BR
  activity at 0.3 µM: 97%
  activity at 3 µM: 100%
  activity at 30 µM: 94%
[1]; 24h, read-out: Base Imp
  activity at 0.3 µM: 87%
  activity at 3 µM: 85%
  activity at 30 µM: 71%
  activity at 300 µM: 44%
[1]
  Effect on base impedance, in words: concentration-and time-dependent decrease in base impedance; also recorded: concentration-dependent effects
[1]; highest test concentration, after 2 h of incubation
  Inhibition of beating rate: […]
[2]; [4]
  activity at 0.3 µM: 136%
[2]; [5]
  activity at 0.3 µM: 80%
  activity at 30 µM: 138%
[2]; Homo sapiens, Cardiomyocyte, 300 µM, 2h, normalized to time-matched vehicle control
  activity at 300 µM: 97%
[2]; highest test concentrations only
  Time of notable raise in the caspase-3/7 activity: […]
[2]; top / highest test concentration, over 24 h
  Apoptosis (caspase-3/7 activity) at the highest test concentration, in words: […]
[3]; 2h
  viability at 0.3 µM: 87%
  viability at 3 µM: 91%
  viability at 30 µM: 97%
  viability at 300 µM: 101%
[3]; 24h
  viability at 0.3 µM: 96%
  viability at 3 µM: 102%
  viability at 30 µM: 100%
  viability at 300 µM: 91%
[3]; top concentration
  Reduction in the ATP content: 9%
ROCK1
  IC50: […]

## O=C(NCc1cccc(O)c1)Nc1nc(-c2ccncc2)cs1 [RKI-1447]
[1]; 0.01 µM, 2h
  BR: 107
  Base Imp: 87
[1]; 0.01 µM, 24h
  BR: 100
  Base Imp: 88
[1]; 0.1 µM, 2h
  BR: 106
  Base Imp: 86
[1]; 0.1 µM, 24h
  BR: 101
  Base Imp: 81
[1]; 1 µM, 2h
  BR: 110
  Base Imp: 80
[1]; 1 µM, 24h
  BR: 107
  Base Imp: 69
[1]; 10 µM, 2h
  BR: 112
  Base Imp: 68
[1]; 10 µM, 24h
  BR: 115
  Base Imp: 65
[1]
  Effect on base impedance, in words: concentration-and time-dependent decrease in base impedance; also recorded: concentration-dependent effects
[2]; 0.01 µM, 2h, normalized to time-matched vehicle control
  Caspase: 116
[2]; 0.01 µM, 24h, normalized to time-matched vehicle control
  Caspase: 115
[2]; 0.1 µM, 2h, normalized to time-matched vehicle control
  Caspase: 117
[2]; 0.1 µM, 24h, normalized to time-matched vehicle control
  Caspase: 115
[2]; 1 µM, 2h, normalized to time-matched vehicle control
  Caspase: 90
[2]; 1 µM, 24h, normalized to time-matched vehicle control
  Caspase: 110
[2]; 10 µM, 2h, normalized to time-matched vehicle control
  Caspase: 93
[2]; 10 µM, 24h, normalized to time-matched vehicle control
  Caspase: 129
[3]; 0.01 µM, 2h
  ATP: 98
[3]; 0.01 µM, 24h
  ATP: 102
[3]; 0.1 µM, 2h
  ATP: 99
[3]; 0.1 µM, 24h
  ATP: 99
[3]; 1 µM, 2h
  ATP: 101
[3]; 1 µM, 24h
  ATP: 98
[3]; 10 µM, 2h
  ATP: 104
[3]; 10 µM, 24h
  ATP: 102
ROCK1
  IC50: 14.5 nM

From paper PMC8242589, “Cardiac Safety of Kinase Inhibitors – Improving Understanding and Prediction of Liabilities in Drug Discovery Using Human Stem Cell-Derived Models” (Frontiers in Cardiovascular Medicine, 2021)
